The test system of the assay is live BCG bacteria. Type of assay: in vivo, C57BL/6 mice. Particulars: 0.1 mL (approximately 10^6 CFU/mL) under the armpits; isoniazid by gavage; 2×10^6 live BCG challenge one week later; week 4.

In the case of `NNC(=O)c1ccncc1` [Isoniazid, isoniazid], the “Colony count of lung tissues (CFU)” value was 34000 ± 13115 CFU and the “Colony count of spleen tissues (CFU)” value was 6733 ± 2969 CFU.

For the origin of these results see patent US11426454B2 (priority 2018, dated 2022).
